From the NIST ThermoML archive (doi:10.1021/je400310h)

Assay: mn = molality of the nth substance listed, in mol/kg
Settings: 101 kPa, Liquid, Vibrating tube method

CCC[n+]1ccn(CCO)c1.[Cl-] [1-(2-hydroxylethyl)-3-propylimidazolium chloride] + O
mass density [kg/m3]
Settings	293.15 K	298.15 K	303.15 K
m1 = 0.01	998.4	997.35	995.88
m1 = 0.0505	999.68	998.47	997.08
m1 = 0.102	1001.01	999.89	998.4
m1 = 0.208	1004.05	1002.76	1001.15
m1 = 0.5535	1012.98	1011.56	1009.99
m1 = 1.175	1027.62	1025.68	1023.8
m1 = 2.103	1046.02	1043.76	1041.7
m1 = 3.23	1063.98	1061.54	1058.92
m1 = 4.772	1082.55	1079.86	1077.08
m1 = 5.992	1093.61	1090.78	1087.9
m1 = 7.003	1101.22	1098.33	1095.39

CCC[n+]1ccn(CC(=O)O)c1.[Cl-] [1-(carboxymethyl)-3-propylimidazolium chloride] + O
mass density [kg/m3]
Settings	m1 = 0.0302	m1 = 0.0505	m1 = 0.1021	m1 = 0.2084	m1 = 0.5569	m1 = 1.257	m1 = 2.166	m1 = 3.386	m1 = 5.114	m1 = 7.768
293.15 K	999.68	1000.6	1002.96	1007.61	1021.7	1046.14	1071.45	1097.44	1123.69	1150.29
298.15 K	998.52	999.44	1001.71	1006.08	1019.83	1044.05	1069.11	1094.76	1120.74	1147.15
303.15 K	997.01	998	1000.1	1004.64	1018.22	1041.75	1066.6	1091.97	1117.73	1143.97

C[n+]1ccn(CC(=O)O)c1.[Cl-] [1-carboxymethyl-3-methylimidazolium chloride] + O
mass density [kg/m3]
Settings	m1 = 0.0302	m1 = 0.0505	m1 = 0.1018	m1 = 0.2072	m1 = 0.5443	m1 = 1.214	m1 = 2.041	m1 = 3.094	m1 = 4.466	m1 = 6.375
293.15 K	999.87	1000.94	1003.6	1008.87	1024.61	1052.15	1080.57	1110.21	1140.75	1173
298.15 K	998.71	999.76	1002.36	1007.5	1022.95	1050.32	1078.44	1107.83	1138.14	1170.21
303.15 K	997.12	998.24	1000.9	1006.06	1021.26	1048.33	1076.13	1105.34	1135.4	1167.36
